# In US4889871A, “Alkoxy-substituted dihydrobenzopyran-2-carboxylate derivatives” (G. D. Searle & Co., priority 1988, dated 1989):
# Where two headings read alike, the source gives them in different places.
# What was measured:
# [1] = biological target: T1, LTB4 receptor (Homo sapiens, UniProt Q15722); test: LTB4 receptor binding assay ((3H) LTB4, human neutrophils); conditions: Table 1
# T1 construct: Neutrophils were purified from venous blood of normal human donors; endogenous in cells; host or cells: purified human blood neutrophils (intact cells)
# T1 sequence (Q15722 whole entry): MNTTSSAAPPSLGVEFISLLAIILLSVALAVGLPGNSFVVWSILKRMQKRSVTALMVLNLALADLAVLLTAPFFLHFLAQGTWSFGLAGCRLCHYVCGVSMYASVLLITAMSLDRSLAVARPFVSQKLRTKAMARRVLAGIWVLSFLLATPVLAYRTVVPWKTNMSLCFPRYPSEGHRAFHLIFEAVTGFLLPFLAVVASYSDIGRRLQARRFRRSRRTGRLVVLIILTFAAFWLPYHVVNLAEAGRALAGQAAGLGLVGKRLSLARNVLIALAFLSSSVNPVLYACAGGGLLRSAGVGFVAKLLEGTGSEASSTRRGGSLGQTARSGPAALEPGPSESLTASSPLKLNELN
# Experimental: Neutrophils (4-6×10^6) in 1 ml Hanks' balanced salt solution containing 10 mM HEPES buffer (HBSS), pH 7.4 and 30 μM nordihydroguaiaretic acid were incubated with 0.6×10^-9 M (^3 H) LTB4 in the presence or absence of test compounds. The incubation was carried out at 0° C. for 45 minutes and terminated by adding 5 ml of ice-cold HBSS followed by rapid filtration of incubation mixture under vacuum through GF/C glass fiber filters. The filters were further washed with 10 ml HBSS and radioactivity was determined. Specific binding was defined as the difference between total binding and nonspecific binding which was not displaced by 10^-7 M unlabeled LTB4. All data refer to specific binding.
# [2] = test system: human neutrophils; test: Modified Boyden chamber chemotaxis (LTB4, human neutrophils); type: cell-based; conditions: Neutrophil; for inhibition at 1 µM: 10^-6 M
# Experimental: Human neutrophils were isolated from citrated peripheral blood using standard techniques of dextran sedimentation, followed by centrifugation on Histopaque® sterile solution (Sigma) or Ficoll-paque® (Pharmacia) and hypotonic lysis of erythrocytes. A final cell suspension of 3.4×10^6 neutrophils/ml of HEPES-buffered Hanks balanced salt solution (HBSS, pH 7.3) was added to the upper well (0.8 ml) of a modified Boyden chamber (blind well). The lower well (0.2 ml), separated by a polycarbonate membrane (Nuleopore Corp.), contained HBSS or 3×10^-8 M LTB4 in the presence of absence of test compound. Following a 90 minute incubation at 37° C. in 5% CO2 -95% air, cells from the lower well were lysed and nuclei counted in a Model S-Plus-IV Coulter Counter. Percent inhibition was calculated from cell counts corrected for random migration by subtracting the mean of the HBSS control.
# [3] = test system: human neutrophils; test: Human neutrophil degranulation assay (LTB4-induced, myeloperoxidase release); type: cell-based; conditions: Table 1, LTB4 (5×10^-8 M)
# Experimental: Neutrophils were purified from venous blood of normal human donors using standard techniques of dextran sedimentation, centrifugation on Ficoll-paque® (Pharmacia) or Histopaque® sterile solution (Sigma) and hypotonic lysis of erythrocytes (Boyum, A., Isolation of Leukocytes From Human Blood: Further Observations. Scand. J. Lab. Clin. Invest., 21 (Suppl. 97): 31, 1968). The purity of isolated neutrophils was >95%.
# Neutrophil degranulation was determined by measuring the release of myeloperoxidase activity into the incubation medium. Neutrophils (3×10^6) in 1 ml HBSS solution were preincubated with cytochalasin B (5 μg) at 37° C. for 5 minutes, followed by preincubation with test compounds for 7 minutes. Neutrophils were then incubated for 2 to 20 minutes with either LTB4 (5×10^-8 M) or the chemotactic peptide f-met-leu-phe (5×10^-6 M) to induce degranulation. Following incubation, samples were centrifuged and myeloperoxidase was extracted from the cell pellets by sonication in phosphate buffer containing 0.4% Triton X-100. Triton X-100 was also added to the supernatants to a concentration of 0.4%. The supernatants and the pellet - extracts were then assayed spectrophotometrically for myeloperoxidase activity by determining the rate of decomposition of H2 O2 with o-dianisidine as hydrogen donor as described by Renlund, et al. (Renlund, D. G., MacFarlane, J. L., Christensen, R. D., Lynch, R. E., and Rothstein, G., A Quantitative And Sensitive Method For Measurement Of Myeloperoxidase, Clinical Research 28:75A, 1980). Myeloperoxidase activity released into the supernatant was expressed as the percent of the average total activity (pellet plus supernatant).
# [4] = biological target: T2, LTD4 receptor (Cavia porcellus, UniProt Q2NNR5); test: LTD4 receptor binding assay using guinea pig lung membrane preparations; conditions: for Receptor Binding LTD4 IC50: Table 1, results are from Table 3, 10^-5 M
# T2 construct: from tissue; host or cells: lung membranes of male Hartley guinea pigs
# T2 sequence (Q2NNR5 1-340): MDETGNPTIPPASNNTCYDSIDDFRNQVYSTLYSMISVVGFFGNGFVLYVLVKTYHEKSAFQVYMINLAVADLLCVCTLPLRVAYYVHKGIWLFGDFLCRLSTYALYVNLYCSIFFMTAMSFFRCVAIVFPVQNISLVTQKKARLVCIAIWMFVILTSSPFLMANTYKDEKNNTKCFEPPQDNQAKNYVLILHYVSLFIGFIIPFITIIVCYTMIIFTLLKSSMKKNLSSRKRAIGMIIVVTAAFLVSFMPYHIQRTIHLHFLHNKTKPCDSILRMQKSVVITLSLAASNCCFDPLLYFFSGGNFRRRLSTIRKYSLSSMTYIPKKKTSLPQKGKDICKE
# Experimental: MEMBRANE PREPARATIONS: For each membrane preparation, 10-11 male Hartley guinea pigs, weighing less than 350 gm, were sacrificed by guillotine. The lungs were rapidly removed and placed in ice-cold 50 mM Trisma 7.0 buffer. After all the lungs were collected, each was probed free of bronchial tissue to at least the level of tertiary branching as observed through a dissecting lamp. The tissue was minced with a razor blade on a damp paper towel and placed into fresh ice-cold Trisma 7.0 buffer. When all the tissues had been processed, they were pooled, drained and weighed. Nine volumes of cold buffer were added and the tissue was polytroned for 6-10 second bursts with a 1 minute cool down period in an ice bath between each burst. The homogenate was filtered through a gauze pad and centrifuged at 1085× g for 15 minutes at 4° C. Supernatants were saved and centrifuged at 40,000× g for 20 minutes at 4° C. This time, supernatants were discarded and the pellets were resuspended in 30-35 ml fresh Trisma 7.0 buffer by 1-10 second bursts with the polytron. The materials were centrifuged again at 40,000× g. Supernatants were again discarded. Each pellet was resuspended again with approximately 7 ml buffer. All this material was pooled into a 100 ml polypropylene container and stirred with a magnetic stirring bar. The tubes were rinsed with small amounts of buffer and the rinse was added to the membrane preparation. The homogenized membranes were aliquoted into 1.5 ml microfuge tubes and frozen at -70° C. Three aliquots were submitted for protein determinations by FPB (fluorescamine protein binding) assay.
# Unless otherwise indicated, all binding experiments were performed in a final incubation volume of 250 μl. […] Both materials were received in solutions. […] Both solutions were brought to appropriate assay concentrations by dilution in assay buffer consisting of 50 mM Trisma 7.4 with 5 mM L-cysteine and 20 mM CaCl2. Membranes were also diluted with this assay buffer. […] Diluent was added to all other appropriate control tubes. Incubations were conducted for 30 minutes at 25° C. in a shaking water bath. Termination of the reaction was achieved by pouring the incubate over 2.5 cm Whatman GF/C filters soaked in assay buffer and set over the ports of Millipore filter vacuum manifolds. Filters were rinsed with 4 ml ice cold assay buffer 3 times. The filters were removed, placed in 10 ml Aquasol scintillation cocktail and allowed to cool in the dark for 2 hours prior to counting. All samples were corrected for background and isotope decay before converting DPM determination to mass.
# These values were logit-transformed and linear regression was performed on the dose-response data. All dose-response sets used to calculate IC50 values contained data from 3-6 compound concentrations. […] IC50 values were calculated from the regression equation for the line.
# male guinea pig lung homogenate which was aliquoted and stored at
# -70° C. The particular preparation used to test the compounds of
# Protein concentrations in these assays were adjusted
# to provide aproximately 0.1 nM receptor in the presence of lnM ^3
# HLTD4. Incubation was conducted for 30 min.
# at 24° C. and filtration methods were used to separate bound from
# tested were intially solubilized in DMSO. Each compound was evaluated at
# dose of 10 μM (10^-5 M) in triplicate in 2 separate assays. The
# [5] = read-out: Chemotaxis (Boyden) percent inhibition
# [6] = read-out: LTD4 Receptor Binding Activity, 10 μM
# [7] = read-out: LTD4 Receptor Binding Percent Inhibition, Test #1, 10 μM, triplicate, 30 min, 24° C.
# [8] = read-out: LTD4 Receptor Binding Percent Inhibition, Test #2, 10 μM, triplicate, 30 min, 24° C.
Compound,IC50 [1] [nM],IC50 [2] [nM],IC50 [3] [nM],"inhibition at 1 µM [2, 5] [%]",further results
"CCCc1c(OCCCOc2ccc(C(C)=O)c(OC)c2CC2CC2)ccc2c1OC(C(=O)O)CC2 (stereo not drawn) [Example 3, 7-[3-[4-acetyl-2-(cyclopropylmethyl)-3-methoxyphenoxy]propoxy]-3,4-dihydro-8-propyl-2H-1-benzopyran-2-carboxylic acid]",190,200,180,–,–
"CCCc1c(OCC(O)COc2ccc3c(=O)cc(C(=O)O)oc3c2CCC)ccc(C(C)=O)c1O (stereo not drawn) [FPL 55712, reference compound]",–,–,–,–,"IC50 [4]: 10400 nM; inhibition at 10 µM ([4]; read-out: LTD4 Receptor Binding Activity): > 45%; inhibition at 10 µM ([4]; read-out: LTD4 Receptor Binding Percent Inhibition, Test #1): 54.7%; inhibition at 10 µM ([4]; read-out: LTD4 Receptor Binding Percent Inhibition, Test #2): 47%"
"C=CCc1c(OCCCOc2ccc3c(c2CCC)OC(C(=O)O)CC3)ccc(C(C)=O)c1OC (stereo not drawn) [Example 5, 7-[3-[4-acetyl-3-methoxy-2-(2-propenyl)phenoxy]propoxy]-3,4-dihydro-8-propyl-2H-1-benzopyran-2-carboxylic acid]",100,500,400,–,–
"CCCc1c(OCCCOc2ccc3c(c2)OC(C(=O)O)CC3)ccc(C(C)=O)c1OC (stereo not drawn) [Example 6, 7-[3-(4-acetyl-3-methoxy-2-propylphenoxy)propoxy]-3,4-dihydro-2H-1-benzopyran-2-carboxylic acid]",2600,–,8000,48,"Receptor Binding LTD4 IC50 [4]: Inactive; inhibition at 10 µM [4, 6]: < 45%; inhibition at 10 µM [4, 7]: 1.63%; inhibition at 10 µM [4, 8]: 26%"
"CCCc1c(OC2CCC(Oc3ccc(C(C)=O)c(OC)c3CCC)C2)ccc2c1OC(C(=O)O)CC2 (stereo not drawn) [Example 4, 7-[[3-(4-acetyl-3-methoxy-2-propylphenoxy)cyclopentyl]oxy]-3,4-dihydro-8-propyl-2H-1-benzopyran-2-carboxylic acid]",5000,–,2700,–,"inhibition at 0.01 µM ([2]; 10^-8 M, read-out: Chemotaxis (Boyden) percent inhibition): 62%"

# Now from value to compound, other results behind:
IC50 [1] [nM],IC50 [2] [nM],IC50 [3] [nM],Compound,"inhibition at 1 µM [2, 5] [%]",further results
370,–,2600,"CCCc1c(OCCCOc2ccc(C(C)=O)c(OC)c2CCC)ccc2c1CC(C(=O)O)CC2 (stereo not drawn) [Example 18, 7-[3-(4-acetyl-3-methoxy-2-propylphenoxy)propoxy]-1,2,3,4-tetrahydro-8-propyl-2-naphthalenecarboxylic acid]",–,"inhibition at 10 µM ([2]; 10^-5 M, read-out: Chemotaxis (Boyden) percent inhibition): 87%"
800,–,2100,CCCc1c(OCC#CCOc2ccc3c(c2CCC)OC(C)(CCC(=O)O)CC3=O)ccc(C(C)=O)c1OC (stereo not drawn) [Example 17],31,–
250,650,550,"CCCc1c(OCCCOc2ccc3c(c2CCC)OC(C)(CCC(=O)O)CC3=O)ccc(C(C)=O)c1OC (stereo not drawn) [Example 16, 7-[3-(4-acetyl-3-methoxy-2-propylphenoxy)propoxy]-3,4-dihydro-2-methyl-4-oxo-8-propyl-2H-1-benzopyran-2-propanoic acid]",–,"Receptor Binding LTD4 IC50 [4]: Inactive; inhibition at 10 µM [4, 6]: < 45%; inhibition at 10 µM [4, 7]: 16.5%; inhibition at 10 µM [4, 8]: 24.1%"
500,1200,1600,"CCCc1c(OCCCOc2ccc3c(=O)cc(CCC(=O)O)oc3c2CCC)ccc(C(C)=O)c1OC [Example 22, 7-[3-(4-acetyl-3-methoxy-2-propylphenoxy)propoxy]-4-oxo-8-propyl-4H-1-benzopyran-2-propanoic acid]",–,–
1800,–,–,"CCCc1c(OCCCOc2ccc(C(C)=O)c(OC)c2CCC)ccc2c1OC(C(=O)NC)CC2 (stereo not drawn) [Example 8, 7-[3-(4-acetyl-3-methoxy-2-propylphenoxy)propoxy]-3,4-dihydro-N-methyl-8-propyl-2H-1-benzopyran-2-carboxamide]",12,–
1000,–,–,"CCCc1c(OCCCOc2ccc(C(C)=O)c(OCC)c2CCC)ccc2c1OC(C(=O)O)CC2 (stereo not drawn) [Example 21, 7-[3-(4-acetyl-3-ethoxy-2-propylphenoxy)-propoxy]-3,4-dihydro-8-propyl-2H-1-benzopyran-2-carboxylic acid]",–,–
1200,–,5000,"CCCc1c(OCCCOc2ccc(C(=O)C(C)C)c(OC)c2CCC)ccc2c1OC(C(=O)O)CC2 (stereo not drawn) [Example 19, 3,4-dihydro-7-[3-[3-methoxy-4-(2-methyl-1-oxopropyl)-2-propylphenoxy]propoxy]-8-propyl-2H-1-benzopyran-2-carboxylic acid]",15,–
